Experiments:
[1] = molecular target: Human immunodeficiency virus type 1 protease (Human immunodeficiency virus 1, UniProt Q72874); test: In vitro inhibitory concentration to prevent cleavage of a substrate by the protease enzyme
[2] = system: MT4; test: Compound was tested in vitro for inhibition of spread of viral infection in MT-4 human T-lymphoid cells infected with the IIIb isolate; format: functional; details: read-out: CIC95

| Structure (SMILES) | IC50 [1] [nM] | IC95 [2] [nM] |
| --- | --- | --- |
| CC(C)(C)NC(=O)[C@@H]1CN(Cc2ccc(Cl)c(Cl)c2)CCN1C[C@@H](O)C[C@@H](Cc1ccccc1)C(=O)N[C@H]1c2ccccc2C[C@H]1O | 1.1 | 200 |
| CC(C)(C)NC(=O)[C@@H]1CN(S(C)(=O)=O)CCN1C[C@@H](O)C[C@@H](Cc1ccccc1)C(=O)N[C@H]1c2ccccc2C[C@H]1O | 1.6 | 400 |
| CC(C)(C)NC(=O)[C@@H]1CN(Cc2cccnc2)CCN1C[C@@H](O)C[C@@H](Cc1ccccc1)C(=O)N[C@H]1c2ccccc2C[C@H]1O [INDINAVIR] |  | 50.5 |
